The supplement of paper PMC10307832

Key:
Test in all cases: relative viability (nuclei count vs DMSO), 5 days (fraction); higher = more cells survive
ALW-II-49-7 + Vorinostat = compound: Cc1ccc(C(=O)Nc2cccc(C(F)(F)F)c2)cc1Nc1cncc(C(N)=O)c1 [ALW-II-49-7] + O=C(CCCCCCC(=O)Nc1ccccc1)NO [Vorinostat] (partner 1 µM)
Method in brief: (§1)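 Relative viability was taken as the ratio of nuclei in treated wells to nuclei in vehicle wells. Lung cancer cell lines in 1536-well plates received compounds by pin tool one day after seeding, either one drug alone or a fixed anchor-drug dose plus five library-drug doses (not always all listed) in √10 steps. Nuclei were counted on 4× images after 5 days of treatment, and values are medians of duplicate plates.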

ALW-II-49-7 + Phenformin = compound: Cc1ccc(C(=O)Nc2cccc(C(F)(F)F)c2)cc1Nc1cncc(C(N)=O)c1 [ALW-II-49-7] + N=C(N)NC(=N)NCCc1ccccc1 [Phenformin] (partner 250 µM)
Method in brief: as §1

ALW-II-49-7 + AZD7762 = compound: Cc1ccc(C(=O)Nc2cccc(C(F)(F)F)c2)cc1Nc1cncc(C(N)=O)c1 [ALW-II-49-7] + NC(=O)Nc1cc(-c2cccc(F)c2)sc1C(=O)N[C@H]1CCCNC1 [AZD7762] (partner 0.2 µM)
Method in brief: as §1

Dasatinib + Olaparib = compound: Cc1nc(Nc2ncc(C(=O)Nc3c(C)cccc3Cl)s2)cc(N2CCN(CCO)CC2)n1 [Dasatinib] + O=C(c1cc(Cc2n[nH]c(=O)c3ccccc23)ccc1F)N1CCN(C(=O)C2CC2)CC1 [Olaparib] (partner 8 µM)
Method in brief: as §1

| Cell Line | relative viability (ALW-II-49-7 + Vorinostat; first compound 0.08 µM) | relative viability (ALW-II-49-7 + Vorinostat; first compound 0.253 µM) | relative viability (ALW-II-49-7 + Vorinostat; first compound 0.8 µM) | relative viability (ALW-II-49-7 + Vorinostat; first compound 8 µM) | relative viability (ALW-II-49-7 + Phenformin; first compound 0.253 µM) | relative viability (ALW-II-49-7 + Phenformin; first compound 0.8 µM) | relative viability (ALW-II-49-7 + Phenformin; first compound 2.53 µM) | relative viability (ALW-II-49-7 + Phenformin; first compound 8 µM) | relative viability (ALW-II-49-7 + AZD7762; first compound 0.08 µM) | relative viability (ALW-II-49-7 + AZD7762; first compound 0.253 µM) | relative viability (ALW-II-49-7 + AZD7762; first compound 0.8 µM) | relative viability (ALW-II-49-7 + AZD7762; first compound 8 µM) | relative viability (Dasatinib + Olaparib; first compound 0.005 µM) | relative viability (Dasatinib + Olaparib; first compound 0.01581 µM) | relative viability (Dasatinib + Olaparib; first compound 0.05 µM) | relative viability (Dasatinib + Olaparib; first compound 0.1581 µM) | relative viability (Dasatinib + Olaparib; first compound 0.5 µM) | relative viability (ALW-II-49-7 + Phenformin; first compound 0.08 µM) | relative viability (ALW-II-49-7 + Vorinostat; first compound 2.53 µM) | relative viability (ALW-II-49-7 + AZD7762; first compound 2.53 µM) |
| --- | --- | --- | --- | --- | --- | --- | --- | --- | --- | --- | --- | --- | --- | --- | --- | --- | --- | --- | --- | --- |
| LK-2 | 0.327 | 0.315 | 0.225 | 0.247 | 0.476 | 0.388 | 0.48 | 0.349 | 0.447 | 0.437 | 0.427 | 0.332 | 0.674 | 0.609 | 0.57 | 0.278 | 0.229 |  |  |  |
| LOU-NH91 | 0.884 | 0.888 | 1 | 0.805 | 0.671 | 0.621 | 0.596 | 0.633 | 0.567 | 0.774 | 0.782 | 0.596 | 0.925 | 0.807 | 0.726 | 0.615 | 0.372 | 0.698 |  |  |
| LU99A |  | 0.525 | 0.507 | 0.619 | 0.923 | 0.82 | 0.988 | 0.746 |  | 0.376 | 0.294 | 0.626 | 0.283 | 0.259 | 0.265 | 0.188 | 0.166 | 0.845 | 0.5 | 0.312 |
| LXF-289 | 0.726 | 0.877 | 0.81 | 0.762 | 0.554 | 0.556 | 0.536 | 0.526 | 1.08 | 1.11 | 0.981 | 1.22 | 1.07 | 1.02 | 0.925 | 0.268 | 0.158 | 0.515 | 0.854 | 1.26 |
| NCI-H23 | 0.634 | 0.692 | 0.339 | 0.46 | 0.759 | 0.705 | 0.857 | 0.898 | 0.163 | 0.263 | 0.147 | 0.224 | 0.359 | 0.301 | 0.307 | 0.297 | 0.282 | 0.855 | 0.575 | 0.227 |
| NCI-H322M | 0.789 | 0.93 | 0.861 | 0.773 | 0.697 | 0.711 | 0.777 | 0.612 | 0.557 | 0.584 | 0.484 | 0.481 | 0.707 | 0.575 | 0.492 | 0.322 | 0.244 | 0.684 | 0.93 | 0.698 |
| NCI-H358 | 1 | 0.694 | 0.805 | 0.447 | 0.297 | 0.356 | 0.407 | 0.312 | 0.51 | 0.711 | 0.405 | 0.524 | 0.464 | 0.431 | 0.427 | 0.303 | 0.139 | 0.324 | 0.574 |  |
| NCI-H441 | 0.669 | 0.788 | 0.901 | 0.538 | 0.682 | 0.817 | 0.928 | 0.67 | 1.18 | 1.24 | 1.07 | 1.1 | 0.532 | 0.529 | 0.519 | 0.387 | 0.309 | 0.979 | 0.549 | 0.817 |
| NCI-H460 | 0.763 | 0.857 | 0.69 | 0.498 | 0.414 | 0.561 | 0.559 | 0.372 | 0.567 | 0.863 | 0.663 | 0.456 | 0.362 | 0.383 | 0.38 | 0.247 | 0.199 | 0.425 | 0.497 | 0.665 |
| NCI-H522 | 0.824 | 1.04 | 0.824 | 0.94 | 0.667 | 0.687 | 0.576 | 0.732 | 0.787 | 0.842 | 0.754 | 0.934 | 0.707 | 0.513 | 0.591 | 0.52 | 0.549 | 0.678 | 0.834 | 0.83 |
| NCI-H596 | 0.488 | 0.574 | 0.586 | 0.456 | 0.706 | 0.596 | 0.622 | 0.788 | 1.15 | 1.23 | 1.12 | 1.24 | 0.685 | 0.575 | 0.525 | 0.517 | 0.466 | 0.804 | 0.683 | 1.14 |
| NCI-H647 | 0.539 | 0.642 | 0.599 | 0.349 | 0.325 | 0.551 | 0.539 | 0.326 | 0.348 | 0.402 | 0.419 | 0.29 | 0.428 | 0.301 | 0.217 | 0.139 | 0.116 | 0.312 | 0.321 |  |
| NCI-H650 | 0.351 | 0.461 | 0.579 | 0.374 | 0.481 | 0.396 | 0.449 | 0.334 | 1.02 | 0.967 | 1.05 | 0.678 | 0.395 | 0.357 | 0.415 | 0.392 | 0.263 | 0.519 | 0.42 | 0.866 |
| NCI-H727 | 1.16 | 1.33 | 1.02 | 1.12 | 0.593 | 0.537 | 0.475 | 0.51 | 0.495 | 0.68 | 0.611 | 0.591 | 0.74 | 0.603 | 0.654 | 0.618 | 0.288 | 0.52 | 1.14 | 0.716 |
| NCI-H838 | 0.778 | 0.748 | 0.693 | 0.769 | 0.45 | 0.628 | 0.626 | 0.442 | 0.921 | 1.04 | 0.889 | 0.886 | 0.622 | 0.453 | 0.403 | 0.229 | 0.179 | 0.412 | 0.759 | 0.702 |
